{"source": "ChEMBL document CHEMBL1123608", "about": "“In vivo antitumor activity of 6-benzyl-1,3-benzodioxole derivatives against the P388, L1210, B16, and M5076 murine models” (1987)", "key": {"Mus musculus [1]": {"system": "Mus musculus", "assay": "The percent increase in life span on P388 cells which were inoculated intraperitoneally in CD2F1 mice at 200 mg/kg dose placed at ranking order 2", "format": "functional", "conditions": "P388, ip, route intraperitoneal"}, "Mus musculus [2]": {"system": "Mus musculus", "assay": "The percent increase in life span on P388 cells which were inoculated intraperitoneally in CD2F1 mice at 400 mg/kg (tested in the same control) dose placed at ranking order 1", "format": "functional", "conditions": "P388, ip, route intraperitoneal"}, "Mus musculus [3]": {"system": "Mus musculus", "assay": "The percent increase in life span on P388 cells which were inoculated intraperitoneally in CD2F1 mice at 400 mg/kg dose placed at ranking order 3", "format": "functional", "conditions": "P388, ip, route intraperitoneal"}, "Mus musculus [4]": {"system": "Mus musculus", "assay": "The percent increase in life span on P388 cells which were inoculated intraperitoneally in CD2F1 mice at 400 mg/kg dose placed at ranking order 4", "format": "functional", "conditions": "P388, ip, route intraperitoneal"}, "Mus musculus [5]": {"system": "Mus musculus", "assay": "Percent increase in life span (ILS) was measured on P388 cells which were inoculated intraperitoneally in CD2F1 mice", "format": "functional"}, "[6]": {"assay": "Ability to inhibit the dibutyryl-cAMP-induced change of an immature glioma cell to a mature, differentiated astrocyte by in vitro astrocytoma assay at 100 ug/mL dose (Experiment #1) value may range from 51 to 70", "format": "functional, Mus musculus"}, "[7]": {"assay": "Ability to inhibit the dibutyryl-cAMP-induced change of an immature glioma cell to a mature, differentiated astrocyte by in vitro astrocytoma assay at 100 ug/mL dose (Experiment #2) value may range from 31 to 50", "format": "functional, Mus musculus"}, "[8]": {"assay": "Ability to inhibit the dibutyryl-cAMP-induced change of an immature glioma cell to a mature, differentiated astrocyte by in vitro astrocytoma assay at 10 ug/mL dose (Experiment #1) value may range from 6 to 15", "format": "functional, Mus musculus"}, "[9]": {"assay": "Ability to inhibit the dibutyryl-cAMP-induced change of an immature glioma cell to a mature, differentiated astrocyte by in vitro astrocytoma assay at 10 ug/mL dose (Experiment #2) value may range from 31 to 50", "format": "functional, Mus musculus"}, "[10]": {"assay": "Ability to inhibit the dibutyryl-cAMP-induced change of an immature glioma cell to a mature, differentiated astrocyte by in vitro astrocytoma assay at 1 ug/mL dose (Experiment #1) value may range from 0 to 5", "format": "functional, Mus musculus"}, "[11]": {"assay": "Ability to inhibit the dibutyryl-cAMP-induced change of an immature glioma cell to a mature, differentiated astrocyte by in vitro astrocytoma assay at 1 ug/mL dose (Experiment #2) value may range from 0 to 5", "format": "functional, Mus musculus"}, "Mus musculus [12]": {"system": "Mus musculus", "assay": "The percent increase in life span on P388 cells which were inoculated intraperitoneally in CD2F1 mice at 200 mg/kg dose placed at ranking order 1", "format": "functional", "conditions": "P388, ip, route intraperitoneal"}, "Mus musculus [13]": {"system": "Mus musculus", "assay": "The percent increase in life span on P388 cells which were inoculated intraperitoneally in CD2F1 mice at 200 mg/kg dose placed at ranking order 3", "format": "functional", "conditions": "P388, ip, route intraperitoneal"}, "Mus musculus [14]": {"system": "Mus musculus", "assay": "The percent increase in life span on P388 cells which were inoculated intraperitoneally in CD2F1 mice at 400 mg/kg (tested in the same control) dose placed at ranking order 4", "format": "functional", "conditions": "P388, ip, route intraperitoneal"}, "Mus musculus [15]": {"system": "Mus musculus", "assay": "In vivo antitumor activity against the B16 melanoma cell line expressed as percent increase in life span at 100 mg/kg dose", "format": "functional"}, "Mus musculus [16]": {"system": "Mus musculus", "assay": "In vivo antitumor activity against the B16 melanoma cell line expressed as percent increase in life span at 200 mg/kg dose", "format": "functional"}, "Mus musculus [17]": {"system": "Mus musculus", "assay": "In vivo antitumor activity against the L1210 leukemia cell line expressed as percent increase in life span at 200 mg/kg dose", "format": "functional", "conditions": "Mus musculus, L1210, dose 200 mg/kg"}, "Mus musculus [18]": {"system": "Mus musculus", "assay": "In vivo antitumor activity against the L1210 leukemia cell line expressed as percent increase in life span at 400 mg/kg dose", "format": "functional"}, "Mus musculus [19]": {"system": "Mus musculus", "assay": "In vivo antitumor activity against the M5076 reticulum cell sarcoma expressed as percent increase in life span at 400 mg/kg dose", "format": "functional"}, "Mus musculus [20]": {"system": "Mus musculus", "assay": "The percent increase in life span on P388 cells which were inoculated intraperitoneally in CD2F1 mice at 800 mg/kg dose placed at ranking order 2", "format": "functional", "conditions": "P388, ip, route intraperitoneal"}, "Mus musculus [21]": {"system": "Mus musculus", "assay": "In vivo antitumor activity against the M5076 reticulum cell sarcoma expressed as percent increase in life span at 800 mg/kg doseEach represents a pair of experiments performed with the same control group", "format": "functional"}}}
{"molecule": "CCCOc1cc2c(cc1C(C)c1ccc(OC)cc1)OCO2", "note": "(configuration not stated)", "values": [{"measurement": "ILS at 200 mg/kg", "setting": "Mus musculus [1]", "value": 21, "unit": "%"}, {"measurement": "ILS at 400 mg/kg", "setting": "Mus musculus [2]", "value": 30, "unit": "%"}, {"measurement": "ILS at 400 mg/kg", "setting": "Mus musculus [3]", "value": 14, "unit": "%"}, {"measurement": "ILS at 400 mg/kg", "setting": "Mus musculus [4]", "value": 12, "unit": "%"}, {"measurement": "ILS", "setting": "Mus musculus [5]", "value": 30, "unit": "%"}]}
{"molecule": "C=CCOc1cc2c(cc1C(C)c1ccc(OC)cc1)OCO2", "note": "(configuration not stated)", "values": [{"measurement": "Astrocyte reversal", "setting": "[6]", "value": 70, "unit": "%"}, {"measurement": "Astrocyte reversal", "setting": "[7]", "value": 50, "unit": "%"}, {"measurement": "Astrocyte reversal", "setting": "[8]", "value": 15, "unit": "%"}, {"measurement": "Astrocyte reversal", "setting": "[9]", "value": 50, "unit": "%"}, {"measurement": "Astrocyte reversal", "setting": "[10]", "value": 5, "unit": "%"}, {"measurement": "Astrocyte reversal", "setting": "[11]", "value": 5, "unit": "%"}, {"measurement": "ILS at 200 mg/kg", "setting": "Mus musculus [12]", "value": 88, "unit": "%"}, {"measurement": "ILS at 200 mg/kg", "setting": "Mus musculus [13]", "value": 41, "unit": "%"}, {"measurement": "ILS at 400 mg/kg", "setting": "Mus musculus [14]", "value": 39, "unit": "%"}, {"measurement": "ILS at 100 mg/kg", "setting": "Mus musculus [15]", "value": 27, "unit": "%"}, {"measurement": "ILS at 200 mg/kg", "setting": "Mus musculus [16]", "value": 55, "unit": "%"}, {"measurement": "ILS at 200 mg/kg", "setting": "Mus musculus [17]", "value": 43, "unit": "%"}, {"measurement": "ILS at 400 mg/kg", "setting": "Mus musculus [18]", "value": 39, "unit": "%"}, {"measurement": "ILS at 400 mg/kg", "setting": "Mus musculus [19]", "value": 33, "unit": "%"}, {"measurement": "ILS at 800 mg/kg", "setting": "Mus musculus [20]", "value": 84, "unit": "%"}, {"measurement": "ILS at 800 mg/kg", "setting": "Mus musculus [21]", "value": 58, "unit": "%"}, {"measurement": "ILS", "setting": "Mus musculus [5]", "value": 88, "unit": "%"}]}
